Results: publication PMC10144058, “New Hybrid Scaffolds Based on 5-FU/Curcumin: Synthesis, Cytotoxic, Antiproliferative and Pro-Apoptotic Effect” (Pharmaceutics, 2023)
Like-named read-outs stand apart in the source and are kept apart here.

Columns and labels:
[1] = test system: SW480 cells; assay: Antiproliferative activity (SRB, 0-8 days); format: cell-based; settings: Homo sapiens, read-out: Cell Viability (%) ± SE; for viability at 0.625 µM: SW480, 0.625 µM; for viability at 10 µM: SW480, 10 µM
Protocol: For this experiment, the same colorimetric method (SRB) from the evaluation of cell viability was used, although with some modifications. Initially, 2500 cells per well were seeded in 96-well culture plates, and a 24 h adherence period was performed at 37 °C in a 5% CO2 atmosphere. […] For this assay, incubation periods of 0, 2, 4, 6, and 8 days were used, and the fixation, staining, and reading conditions were the same as those previously described for the cytotoxicity assay.

[2] = test system: caspase 3, caspase 7, caspase 8 and p53 in SW480 cells; assay: Apoptotic biomarkers (ELISA); format: cell-based, human; settings: SW480, treated with IC50, 48 h, vs control
Protocol: (§1) To provide an approach to the possible molecular mechanisms through which the hybrid compounds induce an effect on the cell lines, different proteins related to the process of death by apoptosis were determined. For this method, 1,000,000 cells were initially seeded per Petri dish, with an adherence period of 24 h at 37 °C in a 5% CO2 atmosphere. […] Later, the consumed medium was discarded, and after the addition of the versene buffer, the cells were obtained by mechanical disaggregation. The cells were then lysed with a cell lysis buffer and centrifuged to obtain the supernatant, which was used to determine the biomarkers of interest by enzyme-linked immunosorbent assays. These ELISA kits were provided by Elabscience Biotechnology Co., Houston, TX, USA [26].

[3] = test system: caspase 3, caspase 7, caspase 8 and p53 in SW620 cells; assay: Apoptotic biomarkers (ELISA); format: cell-based, human; settings: SW620, treated with IC50, 48 h, vs control
Protocol: as §1

[4] = test system: SW620 cells; assay: Mitochondrial membrane potential (DiOC6/PI, flow cytometry); format: cell-based, human; settings: SW620, treated with IC50, 48 h
Protocol: (§2) The fluorescent dyes PI and DIOC6 (3,3’-dihexyloxacarbocyanine iodide) were used to observe the depolarization of the mitochondrial membrane as well as possible cell membrane damage. For this method, 250,000 cells/well were initially seeded in 6-well culture plates during a 24 h adherence period at 37 °C in a 5% CO2 atmosphere. […] After treatment, cells were obtained by mechanical disaggregation, stained with DiOC6 and PI, and incubated at room temperature for 30 min in the dark. Ten thousand events were analyzed by flow cytometry with excitation at 488 nm and emission detection with green (530/15 nm) and red (610/20 nm) filters.

[5] = test system: SW480 cells; assay: as above; format: cell-based, human; settings: SW480, treated with IC50, 48 h
Protocol: as §2

[6] = test system: HaCaT cells; assay: Cell viability, sulforhodamine B (SRB) assay, non-malignant cells; format: cell-based; settings: Homo sapiens
Protocol: (§3) SW480 (colon adenocarcinoma) and SW620 (derived metastatic) malignant cell lines, and the non-malignant lines HaCaT (human keratinocytes) and CHO-K1 (Chinese Hamster Ovary), were obtained from the European Collection of Authenticated Cell Cultures (ECACC, Porton Down, Salisbury, UK). The cells were maintained in Dulbecco’s Modified Eagle’s Medium (DMEM), supplemented with 10% equine serum previously inactivated at 56 °C, 1% penicillin/streptomycin, and 1% non-essential amino acids, and incubated at 37 °C in an atmosphere with 5% CO2. To carry out the experiments, the serum was diluted to 3% and additionally supplemented with […] insulin, […] transferrin, and 5 ng/mL selenium. Cells were used for experimentation when they reached 80–90% confluence, using a 1X trypsin enzymatic disintegration method. To avoid contamination by Mycoplasma spp., cell cultures were periodically analyzed by polymerase chain reaction (PCR).
(§4) Cell viability was evaluated with a sulforhodamine B (SRB) assay. This technique provides an index of protein contents in living and adherent cells, whose optical density can be related to cell concentration. Initially, 20,000 cells were seeded per well in 96-well culture plates. An initial adherence period of 24 h was performed at 37 °C, 5% CO2, and after this, the medium was replaced by another that contained the hybrid compounds in different concentrations. Then, the cells were left incubating for 24 and 48 h under the same conditions previously described. After the respective incubation times, the cells were fixed with trichloroacetic acid (50% v/v) for 1 h at 4 °C and stained with 0.4% (p/v) of SRB. Subsequently, washings with 1% acetic acid were carried out to eliminate possible nonspecific bindings, and after solubilization with 10 mM Tris-base, the absorbance was read at 492 nm in a microplate reader (Mindray MR-96A). All the experiments were carried out in triplicate.

[7] = test system: SW480 cells; assay: Cell death induction (Annexin-V/PI, flow cytometry); format: cell-based, human; settings: SW480, treated with IC50, 48 h
Protocol: For this method, 250,000 cells/well were initially seeded in 6-well culture plates during a 24 h adherence period at 37 °C in a 5% CO2 atmosphere. […] After treatment, cells were obtained by mechanical disaggregation, resuspended in a solution with Annexin-V-FLUOS and PI, and incubated for 20 min in the dark before flow cytometry analysis.

[8] = test system: CHO-K1 cells; assay: Cell viability, sulforhodamine B (SRB) assay, non-malignant cells; format: cell-based, Chinese Hamster; settings: Cricetulus griseus
Protocol: as §3, §4

[9] = test system: SW620 cells; assay: Cell viability, sulforhodamine B (SRB) assay; format: cell-based, human; settings: Homo sapiens
Protocol: as §3, §4

[10] = test system: SW480 cells; assay: Cell viability, sulforhodamine B (SRB) assay; format: cell-based; settings: Homo sapiens
Protocol: as §3, §4

SMILES: COc1cc(/C=C/C(=O)c2ccc(OCCCCCn3cc(Cn4cc(F)c(=O)[nH]c4=O)nn3)cc2)ccc1O [Compound 6d, (E)-5-fluoro-1-((1-(5-(4-(3-(4-hydroxy-3-methoxyphenyl)acryloyl)phenoxy)pentyl)-1H-1,2,3-triazol-4-yl)methyl)pyrimidine-2,4(1H,3H)-dione]
- viability at 0.625 µM ([1]; 48 h, 2 days after plating): 90.1 ± 1.45%
- viability at 10 µM ([1]; 48 h, 2 days after plating): 7.35 ± 1.45%
- viability at 0.625 µM ([1]; 96 h, 4 days after plating): 55.5 ± 2.21%
- viability at 10 µM ([1]; 96 h, 4 days after plating): 0.75 ± 0.2%
- viability at 0.625 µM ([1]; 144 h, 6 days after plating): 46.36 ± 0.18%
- viability at 10 µM ([1]; 144 h, 6 days after plating): 0.68 ± 0.14%
- viability at 0.625 µM ([1]; 192 h, 8 days after plating): 32.3 ± 0.77%
- viability at 10 µM ([1]; 192 h, 8 days after plating): 0%
- levels of biomarkers (caspase 3, caspase 7, caspase 8, p53) [2]: no significant differences
- levels of biomarkers (caspase 3, caspase 7, caspase 8, p53) [3]: no significant differences
- Dioc6 High population (live cells with high membrane polarization) [4]: 19.2%
- Dioc6 Low population (cells that lose membrane polarization) [4]: 0.11%
- PI+ population (membrane damage or dead cells) [4]: 76.1%
- changes in the mitochondrial membrane potential [4]: do not induce significant changes
- Dioc6 High population (live cells with high membrane polarization) [5]: 76.2%
- Dioc6 Low population (cells that lose membrane polarization) [5]: 0%
- PI+ population (membrane damage or dead cells) [5]: 23.7%
- changes in the mitochondrial membrane potential [5]: do not induce significant changes
- IC50 ([6]; 24 h): 42.6 ± 6.93 µM
- IC50 ([6]; 48 h): 20.3 ± 2.66 µM
- Annexin V/PI quadrant Q3 (early apoptotic cells) [7]: 50.2%
- IC50 ([8]; CHO-K1, 24 h): 12.4 ± 1.34 µM
- IC50 ([8]; CHO-K1, 48 h): 28.1 ± 1.95 µM
- IC50 ([9]; SW-620, 24 h, 24 h): 37.1 ± 3.05 µM
- IC50 ([9]; SW-620, 48 h, 48 h): 7.51 ± 1.47 µM
- IC50 ([10]; SW480, 24 h): 15.7 ± 1.91 µM
- IC50 ([10]; SW480, 48 h): 2.43 ± 0.33 µM
